Reference: US10800791B2, “Triazole ACC inhibitors and uses thereof” (Gilead Apollo, LLC, priority 2015, dated 2020)
Values after ≈ are worked out from the molar mass of the structure shown. Read-outs that look alike come from different tables or passages of the source.

Key:
[1] = tested on: Fusarium moniliforme (Fm); assay: Growth inhibition assay of fungal pathogens, Fm; assay type: cell-based; settings: for IC90: Fusarium verticillioides, 48 h, read-out: Concentration at 90% Inhibition Fm
Summary of the method: (§1)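 Inhibition percentages reflect 48 h OD600 and visual scores relative to a 2% DMSO control. Test concentrations were 50, 10, 2 ppm or 2, 0.4, 0.08 ppm final, applied to spores in 17% V8 medium.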

[2] = tested on: Collectotrichum graminicola (Cg); assay: Growth inhibition assay of fungal pathogens, Cg; assay type: cell-based; settings: 48 h
Summary of the method: as §1

[3] = tested on: Phytophthora capsici (Pc); assay: Growth inhibition assay of fungal pathogens, Pc; assay type: cell-based; settings: 48 h
Summary of the method: as §1

[4] = molecular target: human (hACC2) (Homo sapiens, UniProt O00763); assay: In vitro ACC inhibition assay (ADP-Glo), hACC2; assay type: biochemical; settings: 5 nM ACC2, 20 μM ATP, 20 μM acetyl-CoA
human (hACC2), sequence (O00763 whole entry): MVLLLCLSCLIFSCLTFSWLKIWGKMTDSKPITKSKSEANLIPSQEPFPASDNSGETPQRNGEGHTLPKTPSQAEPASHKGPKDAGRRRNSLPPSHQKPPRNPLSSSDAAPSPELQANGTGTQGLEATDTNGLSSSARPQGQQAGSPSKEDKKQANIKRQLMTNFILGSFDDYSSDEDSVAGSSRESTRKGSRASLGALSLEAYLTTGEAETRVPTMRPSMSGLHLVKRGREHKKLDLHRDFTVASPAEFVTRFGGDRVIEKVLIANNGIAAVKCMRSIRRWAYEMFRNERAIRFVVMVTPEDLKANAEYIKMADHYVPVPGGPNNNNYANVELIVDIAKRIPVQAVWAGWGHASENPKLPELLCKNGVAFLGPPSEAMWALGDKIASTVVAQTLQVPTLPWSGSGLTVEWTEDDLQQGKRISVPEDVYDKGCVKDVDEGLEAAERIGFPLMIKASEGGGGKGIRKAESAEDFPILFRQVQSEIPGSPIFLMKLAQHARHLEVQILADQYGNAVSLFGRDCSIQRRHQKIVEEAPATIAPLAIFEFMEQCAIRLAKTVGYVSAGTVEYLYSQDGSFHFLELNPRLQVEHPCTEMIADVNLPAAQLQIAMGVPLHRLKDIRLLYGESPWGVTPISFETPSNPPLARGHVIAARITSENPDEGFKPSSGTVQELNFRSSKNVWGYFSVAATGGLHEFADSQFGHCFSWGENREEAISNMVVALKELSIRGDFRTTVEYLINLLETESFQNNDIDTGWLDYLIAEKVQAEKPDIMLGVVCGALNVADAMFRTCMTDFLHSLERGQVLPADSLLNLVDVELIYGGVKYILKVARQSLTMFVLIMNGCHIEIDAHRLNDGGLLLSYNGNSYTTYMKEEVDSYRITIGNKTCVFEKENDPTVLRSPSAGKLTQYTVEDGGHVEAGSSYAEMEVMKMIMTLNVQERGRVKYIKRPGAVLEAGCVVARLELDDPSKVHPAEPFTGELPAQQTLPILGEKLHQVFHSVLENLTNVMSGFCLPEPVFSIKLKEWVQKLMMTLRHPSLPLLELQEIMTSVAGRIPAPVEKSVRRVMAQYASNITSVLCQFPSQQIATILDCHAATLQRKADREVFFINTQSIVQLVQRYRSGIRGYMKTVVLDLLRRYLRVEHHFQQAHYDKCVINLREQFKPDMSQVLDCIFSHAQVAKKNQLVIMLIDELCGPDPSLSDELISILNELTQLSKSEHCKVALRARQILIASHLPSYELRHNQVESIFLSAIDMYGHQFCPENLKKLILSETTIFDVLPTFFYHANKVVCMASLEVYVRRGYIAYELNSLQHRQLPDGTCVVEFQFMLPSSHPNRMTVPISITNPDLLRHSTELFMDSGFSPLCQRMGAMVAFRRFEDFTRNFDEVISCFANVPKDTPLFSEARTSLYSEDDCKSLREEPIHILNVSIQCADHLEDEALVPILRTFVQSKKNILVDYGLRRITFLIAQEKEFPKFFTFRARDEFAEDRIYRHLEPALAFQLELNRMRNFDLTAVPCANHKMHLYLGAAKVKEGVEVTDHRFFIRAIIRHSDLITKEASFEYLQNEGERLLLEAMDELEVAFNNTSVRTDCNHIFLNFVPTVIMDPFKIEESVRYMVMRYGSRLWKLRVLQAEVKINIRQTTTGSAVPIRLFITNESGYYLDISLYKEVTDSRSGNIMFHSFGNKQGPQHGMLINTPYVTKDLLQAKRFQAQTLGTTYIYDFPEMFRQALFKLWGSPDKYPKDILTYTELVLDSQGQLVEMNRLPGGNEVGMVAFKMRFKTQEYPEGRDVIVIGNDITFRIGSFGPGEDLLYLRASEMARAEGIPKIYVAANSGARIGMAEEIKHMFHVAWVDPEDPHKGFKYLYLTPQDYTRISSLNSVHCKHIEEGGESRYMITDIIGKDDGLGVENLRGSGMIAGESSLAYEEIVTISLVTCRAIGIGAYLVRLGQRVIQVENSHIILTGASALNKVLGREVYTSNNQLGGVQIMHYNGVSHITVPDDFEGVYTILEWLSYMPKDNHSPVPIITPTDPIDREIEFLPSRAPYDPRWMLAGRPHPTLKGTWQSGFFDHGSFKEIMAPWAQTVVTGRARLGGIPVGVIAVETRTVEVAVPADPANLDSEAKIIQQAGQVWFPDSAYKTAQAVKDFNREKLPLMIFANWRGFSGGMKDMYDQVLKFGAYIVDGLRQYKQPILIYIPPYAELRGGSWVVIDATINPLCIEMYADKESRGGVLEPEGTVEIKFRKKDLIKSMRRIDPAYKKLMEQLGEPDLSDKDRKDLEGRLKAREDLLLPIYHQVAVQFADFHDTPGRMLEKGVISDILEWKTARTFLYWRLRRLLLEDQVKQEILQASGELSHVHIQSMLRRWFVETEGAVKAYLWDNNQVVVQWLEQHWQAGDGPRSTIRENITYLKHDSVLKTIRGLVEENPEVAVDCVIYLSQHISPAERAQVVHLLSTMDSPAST
Procedure: The detailed procedure is as follows. […] 10 μL ADP glo reagent was added. […] 20 μL kinase detection reagent was added.

[5] = tested on: C. parapsilosis; assay: Antifungal Activity Assay (broth microtiter MIC), C. parapsilosis; assay type: cell-based, Candida parapsilosis; settings: Lodderomyces parapsilosis, ATCC22019, 48 h
Summary of the method: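 CLSI M27-A3 microdilution; RPMI 1640+MOPS; 2.5×10^3 CFU/mL final inoculum; cultures from Sabouraud dextrose agar, 35° C overnight; compound working solution 128 μg/mL from 1 mg/mL DMSO stock; visual MIC at 48 h vs growth control.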

[6] = molecular target: fungal (fACC2) (UniProt Q00955); settings: read-out: fACC2 (in vitro ACC2 Inhibition Assay, IC50), ADP-Glo, 5 nM ACC2, 20 μM ATP, 20 μM acetyl-CoA
fungal (fACC2), sequence (Q00955 whole entry): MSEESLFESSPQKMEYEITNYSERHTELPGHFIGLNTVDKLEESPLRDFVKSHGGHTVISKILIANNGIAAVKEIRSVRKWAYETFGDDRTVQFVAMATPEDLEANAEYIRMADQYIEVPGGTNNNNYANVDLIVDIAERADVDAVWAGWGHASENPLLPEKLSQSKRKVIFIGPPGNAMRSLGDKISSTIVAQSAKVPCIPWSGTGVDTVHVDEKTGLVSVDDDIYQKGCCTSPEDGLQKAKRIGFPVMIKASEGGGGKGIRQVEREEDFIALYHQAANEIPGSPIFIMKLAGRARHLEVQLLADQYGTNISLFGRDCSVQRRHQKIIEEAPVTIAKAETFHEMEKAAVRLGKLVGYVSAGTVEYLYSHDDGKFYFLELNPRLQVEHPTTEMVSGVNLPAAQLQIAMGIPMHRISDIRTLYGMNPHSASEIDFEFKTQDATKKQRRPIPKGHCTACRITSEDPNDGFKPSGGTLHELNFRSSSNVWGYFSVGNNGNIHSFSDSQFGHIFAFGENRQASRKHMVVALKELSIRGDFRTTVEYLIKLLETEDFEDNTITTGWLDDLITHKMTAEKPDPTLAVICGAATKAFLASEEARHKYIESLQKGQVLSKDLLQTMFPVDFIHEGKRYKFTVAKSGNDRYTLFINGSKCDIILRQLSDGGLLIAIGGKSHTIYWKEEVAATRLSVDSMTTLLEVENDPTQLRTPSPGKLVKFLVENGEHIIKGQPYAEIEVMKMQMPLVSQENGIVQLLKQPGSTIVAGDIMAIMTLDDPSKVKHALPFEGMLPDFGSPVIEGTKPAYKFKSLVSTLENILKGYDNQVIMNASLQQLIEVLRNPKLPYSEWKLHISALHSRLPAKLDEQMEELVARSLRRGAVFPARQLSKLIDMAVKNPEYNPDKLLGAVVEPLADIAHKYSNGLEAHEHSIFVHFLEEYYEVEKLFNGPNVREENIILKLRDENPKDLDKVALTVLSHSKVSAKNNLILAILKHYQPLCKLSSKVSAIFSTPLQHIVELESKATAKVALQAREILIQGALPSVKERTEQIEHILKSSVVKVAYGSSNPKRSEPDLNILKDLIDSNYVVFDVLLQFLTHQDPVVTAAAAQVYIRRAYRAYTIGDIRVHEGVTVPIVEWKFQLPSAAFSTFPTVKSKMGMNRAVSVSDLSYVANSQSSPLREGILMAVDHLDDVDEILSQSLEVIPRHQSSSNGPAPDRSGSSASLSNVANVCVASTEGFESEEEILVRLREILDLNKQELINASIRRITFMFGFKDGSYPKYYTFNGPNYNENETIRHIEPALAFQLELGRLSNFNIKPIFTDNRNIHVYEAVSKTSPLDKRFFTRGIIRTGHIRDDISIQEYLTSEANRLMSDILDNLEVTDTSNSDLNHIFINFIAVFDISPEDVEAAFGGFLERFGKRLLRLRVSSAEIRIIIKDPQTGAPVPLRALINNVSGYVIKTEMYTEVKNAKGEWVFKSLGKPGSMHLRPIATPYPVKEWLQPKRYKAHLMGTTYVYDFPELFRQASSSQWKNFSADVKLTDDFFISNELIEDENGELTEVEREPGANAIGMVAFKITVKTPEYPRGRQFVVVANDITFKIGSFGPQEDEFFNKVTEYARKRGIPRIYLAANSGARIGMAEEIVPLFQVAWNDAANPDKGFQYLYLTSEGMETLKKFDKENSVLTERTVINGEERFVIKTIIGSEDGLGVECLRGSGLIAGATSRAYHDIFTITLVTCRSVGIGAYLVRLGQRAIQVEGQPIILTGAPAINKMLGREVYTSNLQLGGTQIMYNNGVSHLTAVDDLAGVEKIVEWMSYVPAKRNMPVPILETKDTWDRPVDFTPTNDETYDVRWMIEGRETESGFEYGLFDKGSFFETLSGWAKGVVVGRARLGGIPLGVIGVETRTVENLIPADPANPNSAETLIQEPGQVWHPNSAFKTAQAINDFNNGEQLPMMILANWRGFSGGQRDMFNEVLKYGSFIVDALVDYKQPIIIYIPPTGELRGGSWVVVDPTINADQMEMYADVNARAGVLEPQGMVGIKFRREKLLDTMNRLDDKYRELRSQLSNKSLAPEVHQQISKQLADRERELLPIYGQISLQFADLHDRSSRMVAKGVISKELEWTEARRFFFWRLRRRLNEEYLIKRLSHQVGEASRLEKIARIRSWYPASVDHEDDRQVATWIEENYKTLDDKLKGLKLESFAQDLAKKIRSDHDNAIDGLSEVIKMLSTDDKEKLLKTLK

[7] = tested on: Rhizoctonia solani (Rs); assay: Growth inhibition assay of fungal pathogens, Rs; assay type: cell-based; settings: 48 h
[8] = tested on: Fusarium virguliforme (Fv); assay: Growth inhibition assay of fungal pathogens, Fv; assay type: cell-based; settings: 48 h
Summary of the method: as §1

[9] = tested on: Diplodia maydis (Dm); assay: Growth inhibition assay of fungal pathogens, Dm; assay type: cell-based; settings: Stenocarpella maydis, 48 h
Summary of the method: as §1

[10] = tested on: Septoria tritici (St); assay: Growth inhibition assay of fungal pathogens, St; assay type: cell-based; settings: Zymoseptoria tritici, 48 h
Summary of the method: as §1

[11] = Fusarium moniliforme, growth inhibition at 48 hours vs 2% DMSO control
[12] = Fusarium moniliforme, growth inhibition vs 2% DMSO control at 48 hours
[13] = Collectotrichum graminicola, growth inhibition at 48 hours vs 2% DMSO control, read-out: Concentration at 90% Inhibition Cg
[14] = Collectotrichum graminicola, growth inhibition vs 2% DMSO control at 48 hours, read-out: Concentration at 90% Inhibition Cg
[15] = growth inhibition at 48 hours vs 2% DMSO control, read-out: Concentration at 90% Inhibition Pc
[16] = growth inhibition vs 2% DMSO control at 48 hours, read-out: Concentration at 90% Inhibition Pc
[17] = Table 3a, ATCC 22019, 3 replicates, MIC recorded at 48 h, read-out: MIC, C. parapsilosis ATCC 22019
[18] = Table 3b (additional results), ATCC 22019, 3 replicates, MIC recorded at 48 h, read-out: MIC, C. parapsilosis ATCC 22019
[19] = mycelial plugs, growth inhibition at 48 hours vs 2% DMSO control, read-out: Concentration at 90% Inhibition Rs
[20] = mycelial plugs, growth inhibition vs 2% DMSO control at 48 hours, read-out: Concentration at 90% Inhibition Rs
[21] = growth inhibition at 48 hours vs 2% DMSO control, read-out: Concentration at 90% Inhibition Fv
[22] = growth inhibition vs 2% DMSO control at 48 hours, read-out: Concentration at 90% Inhibition Fv
[23] = Diplodia maydis, growth inhibition at 48 hours vs 2% DMSO control, read-out: Concentration at 90% Inhibition Dm
[24] = Diplodia maydis, growth inhibition vs 2% DMSO control at 48 hours, read-out: Concentration at 90% Inhibition Dm
[25] = Septoria tritici, growth inhibition at 48 hours vs 2% DMSO control, read-out: Concentration at 90% Inhibition St
[26] = Septoria tritici, growth inhibition vs 2% DMSO control at 48 hours, read-out: Concentration at 90% Inhibition St

SMILES | IC90 [1, 11] [µg/mL] | IC90 [1, 12] [µg/mL] | IC90 [2, 13] [µg/mL] | IC90 [2, 14] [µg/mL] | IC90 [3, 15] [µg/mL] | IC90 [3, 16] [µg/mL] | IC50 ([4]; Table 2a) [nM] | IC50 ([4]; Table 2b, additional results) [nM] | MIC [5, 17] [µg/mL] | MIC [5, 18] [µg/mL] | IC50 ([6]; Table 2a) [nM] | IC50 ([6]; Table 2b, additional results) [nM] | IC90 [7, 19] [µg/mL] | IC90 [7, 20] [µg/mL] | IC90 [8, 21] [µg/mL] | IC90 [8, 22] [µg/mL] | IC90 [9, 23] [µg/mL] | IC90 [9, 24] [µg/mL] | IC90 [10, 25] [µg/mL] | IC90 [10, 26] [µg/mL] | other results
COc1ccc(F)cc1[C@H](Cn1c(=O)n(CC(=O)N2CCCC2)c(=O)c2c(C)c(-n3nccn3)sc21)OCCO [Compound I-81, (R)-1-(2-(5-fluoro-2-methoxyphenyl)-2-(2-hydroxy-ethoxy)ethyl)-5-methyl-3-(2-oxo-2-(pyrrolidin-1-yl)ethyl)-6-(2H-1,2,3-triazol-2-yl)thieno[2,3-d]pyrimidine-2,4(1H,3H)-dione] | 0.08 (≈ 0.14 µM) | 0.08 (≈ 0.14 µM) | 2 (≈ 3.49 µM) | 2 (≈ 3.49 µM) | > 50 | > 50 | 5 to 10 | 5 to 10 | 2.1 to 4 (≈ 3.67 to 6.99 µM) | 2.01 to 4 (≈ 3.51 to 6.99 µM) | 1 to 5 | 1 to 5 | 0.08 (≈ 0.14 µM) | 0.08 (≈ 0.14 µM) | 0.4 (≈ 0.699 µM) | 0.4 (≈ 0.699 µM) | 2 (≈ 3.49 µM) | 2 (≈ 3.49 µM) | > 50 | > 50 | 
COc1ccc(F)cc1[C@H](Cn1c(=O)n(CC(=O)NC(C)C)c(=O)c2c(C)c(-n3nccn3)sc21)OCCO [Compound I-82, (R)-2-(1-(2-(5-fluoro-2-methoxyphenyl)-2-(2-hydroxy-ethoxy)ethyl)-5-methyl-2,4-dioxo-6-(2H-1,2,3-triazol-2-yl)-1,4-dihydro-thieno[2,3-d]pyrimidin-3(2H)-yl)-N-isopropylacetamide] |  |  |  |  |  |  | 1 to 5 | 1 to 5 |  |  | 1 to 5 | 1 to 5 |  |  |  |  |  |  |  |  | Concentration at 90% Inhibition Fm [1, 11]: AA (compound concentration of 0.08 ppm at 90% inhibition of fungal pathogens); IC90 [1]: 0.08 µg/mL (≈ 0.143 µM); IC90 ([2]; read-out: Concentration at 90% Inhibition Cg, Collectotrichum graminicola, growth inhibition at 48 hours vs 2% DMSO control): 2 µg/mL (≈ 3.57 µM); IC90 ([2]; read-out: Concentration at 90% Inhibition Cg, Collectotrichum graminicola, growth inhibition vs 2% DMSO control at 48 hours): 2 µg/mL (≈ 3.57 µM); IC90 ([3]; read-out: Concentration at 90% Inhibition Pc, Phytophthora capsici, growth inhibition at 48 hours vs 2% DMSO control): > 50 µg/mL; IC90 ([3]; read-out: Concentration at 90% Inhibition Pc, Phytophthora capsici, growth inhibition vs 2% DMSO control at 48 hours): > 50 µg/mL; MIC ([5]; read-out: MIC, C. parapsilosis ATCC 22019, Table 3a, 3 replicates, MIC recorded at 48 h): 2.1 to 4 µg/mL (≈ 3.75 to 7.14 µM); MIC ([5]; read-out: MIC, C. parapsilosis ATCC 22019, Table 3b (additional results), 3 replicates, MIC recorded at 48 h): 2.01 to 4 µg/mL (≈ 3.59 to 7.14 µM); IC90 ([7]; read-out: Concentration at 90% Inhibition Rs, Rhizoctonia solani, mycelial plugs, growth inhibition at 48 hours vs 2% DMSO control): 2 µg/mL (≈ 3.57 µM); IC90 ([7]; read-out: Concentration at 90% Inhibition Rs, Rhizoctonia solani, mycelial plugs, growth inhibition vs 2% DMSO control at 48 hours): 2 µg/mL (≈ 3.57 µM); IC90 ([8]; read-out: Concentration at 90% Inhibition Fv, Fusarium virguliforme, growth inhibition at 48 hours vs 2% DMSO control): 2 µg/mL (≈ 3.57 µM); IC90 ([8]; read-out: Concentration at 90% Inhibition Fv, Fusarium virguliforme, growth inhibition vs 2% DMSO control at 48 hours): 2 µg/mL (≈ 3.57 µM); IC90 ([9]; read-out: Concentration at 90% Inhibition Dm, Diplodia maydis, growth inhibition at 48 hours vs 2% DMSO control): > 50 µg/mL; IC90 ([9]; read-out: Concentration at 90% Inhibition Dm, Diplodia maydis, growth inhibition vs 2% DMSO control at 48 hours): > 50 µg/mL; IC90 ([10]; read-out: Concentration at 90% Inhibition St, Septoria tritici, growth inhibition at 48 hours vs 2% DMSO control): > 50 µg/mL; IC90 ([10]; read-out: Concentration at 90% Inhibition St, Septoria tritici, growth inhibition vs 2% DMSO control at 48 hours): > 50 µg/mL
COc1ccc(F)cc1[C@H](Cn1c(=O)n([C@H](C)C(=O)NC2CCC2)c(=O)c2c(C)c(-n3nccn3)sc21)OCCO [Compound I-84, (R)—N-cyclobutyl-2-(1-((R)-2-(5-fluoro-2-methoxyphenyl)-2-(2-hydroxyethoxy)ethyl)-5-methyl-2,4-dioxo-6-(2H-1,2,3-triazol-2-yl)-1,4-dihydrothieno[2,3-d]pyrimidin-3(2H)-yl)propanamide] | 0.08 (≈ 0.136 µM) | 0.08 (≈ 0.136 µM) | 0.08 (≈ 0.136 µM) | 0.08 (≈ 0.136 µM) | 2 (≈ 3.41 µM) | 2 (≈ 3.41 µM) | 5 to 10 | 5 to 10 | 0.25 to 1 (≈ 0.426 to 1.7 µM) | 0.25 to 1 (≈ 0.426 to 1.7 µM) | 0.4 to 1 | 0.3 to 1 | 0.08 (≈ 0.136 µM) | 0.08 (≈ 0.136 µM) | 0.4 (≈ 0.682 µM) | 0.4 (≈ 0.682 µM) | 0.4 (≈ 0.682 µM) | 0.4 (≈ 0.682 µM) | 2 (≈ 3.41 µM) | 10 (≈ 17 µM) | 
